Patent publication US20180327367A1, “MACROCYCLIC BROAD SPECTRUM ANTIBIOTICS” (priority 2015, published 2018)
Values after ≈ are worked out from the molar mass of the structure shown. Where two headings read alike, the source gives them in different places.

Key:
[1] = system: Methicillin Resistant Staphylococcus aureus strain USA 300, NRS384; assay: Minimum inhibitory concentration, broth micro-dilution (CLSI), S. aureus; format: cell-based; settings: Staphylococcus aureus, MRSA / NRS 384 / USA300, 22 h, 35° C., 22 hours
Procedure, shortened: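 CLSI broth microdilution in cation-adjusted Mueller Hinton Broth with 0.002% Tween-80; inoculum final OD600 0.0005, 22 hours at 35° C. Ten 2-fold dilutions starting at 4 μg/mL (protocol 2) or 0.5 μg/mL (protocol 3).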

[2] = system: Escherichia coli MC4100 harboring the IMP4213 (E. coli IMP); assay: microbe, parasite or virus in culture; format: cell-based; settings: Escherichia coli, 22 h, read-out: MIC (μg/mL) E. coli IMP, E. coli MC4100 IMP4213, increased outer-membrane permeability; 35° C., 22 hours
Procedure, shortened: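 Top conc 4 μg/mL (protocol 2) or 0.5 μg/mL (protocol 3), 2-fold series, 10 points. Final OD600 0.0005; 22 h, 35° C. IMP4213 = permeable outer membrane.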

[3] = system: Escherichia coli ATCC 25922; assay: Minimum inhibitory concentration, broth micro-dilution (CLSI), E. coli; format: cell-based; settings: Escherichia coli, ATCC25922, 22 h, 35° C., 22 hours
[4] = biological target: T1, SpsB (Staphylococcus aureus signal peptidase) (Staphylococcus aureus, UniProt P0A070); assay: cell-based; format: biochemical; settings: SpsB IC50, whole-cell S. aureus (USA300 background, overexpressing SpsB) as SpsB source; fluorogenic peptide substrate, kinetic read 30 min
T1 construct: This assay uses a suspension of Staphylococcus aureus cells as a source of SpsB instead of recombinant SpsB protein; endogenous in cells; host or cells: S. aureus, USA300 background, overexpressing SpsB (whole-cell suspension from frozen pellets)
T1 sequence (P0A070 whole entry): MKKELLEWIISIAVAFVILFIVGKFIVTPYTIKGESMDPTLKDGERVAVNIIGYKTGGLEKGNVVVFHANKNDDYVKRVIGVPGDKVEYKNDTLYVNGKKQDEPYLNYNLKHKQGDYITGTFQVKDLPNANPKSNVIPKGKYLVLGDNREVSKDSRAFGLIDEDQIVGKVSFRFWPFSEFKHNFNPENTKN
Procedure, shortened: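 Cleavage of an internally quenched (Dabcyl)βAla-KPAKAAE(Edans) peptide, added as 20 μM solution mixed 1:1 with cells, was followed for 30 min at 340/490 nm. SpsB came from a suspension of SpsB-overexpressing USA300 S. aureus in Tween-80-containing PBS buffer. Slopes plotted against 3-fold compound dilutions gave IC50.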

[5] = MRSA USA 300 NRS384, read-out: MIC (μg/mL) S. aureus
[6] = E. coli ATCC 25922, read-out: MIC (μg/mL) E. coli
[7] = read-out: MIC (μg/mL) S. aureus, MRSA USA 300 NRS384
[8] = read-out: MIC (μg/mL) E. coli, E. coli ATCC 25922

SMILES	MIC [1, 5]	MIC [2]	MIC [3, 6]	IC50 [4]	MIC [1, 7]	MIC [3, 8]
CCCCCCCCCC(=O)N[C@@H](CCSC)C(=O)N(C)[C@@H]1C(=O)N[C@@H](C)C(=O)N[C@H](C(=O)NCC#N)Cc2ccc(OCCN)c(c2)-c2cc1ccc2OCCN [Compound 254]	0.5 µg/mL (≈ 0.607 µM)	0.5 µg/mL (≈ 0.607 µM)	48 µg/mL (≈ 58.3 µM)	1.6 nM		
CCCCCCCCCCCC(=O)N[C@H](C(=O)N(C)[C@@H]1C(=O)N[C@@H](C)C(=O)N[C@H](C(=O)NCC#N)Cc2ccc(OCCN)c(c2)-c2cc1ccc2OCCN)[C@@H](C)O [Compound 256]	0.19 µg/mL (≈ 0.231 µM)	0.094 µg/mL (≈ 0.114 µM)	16 µg/mL (≈ 19.5 µM)	0.8 nM		
CCCCCCCCCCCC(=O)N[C@@H](CCO)C(=O)N(C)[C@@H]1C(=O)N[C@@H](C)C(=O)N[C@H](C(=O)NCC#N)Cc2ccc(OCCN)c(c2)-c2cc1ccc2OCCN [Compound 257]	0.13 µg/mL (≈ 0.158 µM)	0.063 µg/mL (≈ 0.0767 µM)	12 µg/mL (≈ 14.6 µM)	0.92 nM		
CCCCc1ccc(C(=O)N[C@@H](CCO)C(=O)N(C)[C@@H]2C(=O)N[C@@H](C)C(=O)N[C@H](C(=O)NCC#N)Cc3ccc(OCCN)c(c3)-c3cc2ccc3OCCN)c(C)c1 [Compound 258]	1 µg/mL (≈ 1.23 µM)	0.19 µg/mL (≈ 0.234 µM)	64 µg/mL (≈ 78.7 µM)	2.8 nM		
CCCCCCCc1ccc(C(=O)N[C@@H](CCO)C(=O)N(C)[C@@H]2C(=O)N[C@@H](C)C(=O)N[C@H](C(=O)NCC#N)Cc3ccc(OCCN)c(c3)-c3cc2ccc3OCCN)c(C)c1 [Compound 260]	0.094 µg/mL (≈ 0.11 µM)	0.031 µg/mL (≈ 0.0363 µM)	2 µg/mL (≈ 2.34 µM)	1.1 nM		
Cc1cc(-c2ccc(CC(C)C)cc2)ccc1C(=O)N[C@@H](CCO)C(=O)N(C)[C@@H]1C(=O)N[C@@H](C)C(=O)N[C@H](C(=O)NCC#N)Cc2ccc(OCCN)c(c2)-c2cc1ccc2OCCN [Compound 261]	0.13 µg/mL (≈ 0.146 µM)	0.047 µg/mL (≈ 0.0529 µM)	0.5 µg/mL (≈ 0.562 µM)	4.6 nM		
CCCCCCCCc1ccc(C(=O)N[C@@H](CCO)C(=O)N(C)[C@@H]2C(=O)N[C@@H](C)C(=O)N[C@H](C(=O)NCC#N)Cc3ccc(OCCN)c(c3)-c3cc2ccc3OCCN)c(C)c1 [Compound 262]	0.063 µg/mL (≈ 0.0725 µM)	0.02 µg/mL (≈ 0.023 µM)	1 µg/mL (≈ 1.15 µM)	0.9 nM		
CCCCCCCCc1ccc(C(=O)N[C@@H](CCNCC(=O)O)C(=O)N(C)[C@@H]2C(=O)N[C@@H](C)C(=O)N[C@H](C(=O)NCC#N)Cc3ccc(OCCN)c(c3)-c3cc2ccc3OCCN)c(C)c1 [Compound 263]	0.13 µg/mL (≈ 0.14 µM)	0.023 µg/mL (≈ 0.0248 µM)	2 µg/mL (≈ 2.16 µM)	1.1 nM		
CCCCCCCCCCCC(=O)N[C@@H](CCCO)C(=O)N(C)[C@@H]1C(=O)N[C@@H](C)C(=O)N[C@H](C(=O)NCC#N)Cc2ccc(OCCN)c(c2)-c2cc1ccc2OCCN [Compound 264]	0.13 µg/mL (≈ 0.156 µM)	0.094 µg/mL (≈ 0.113 µM)	16 µg/mL (≈ 19.2 µM)	2 nM		
CCC(C)(C)c1ccc(C(=O)N[C@@H](CCN)C(=O)N(C)[C@@H]2C(=O)N[C@@H](C)C(=O)N[C@H](C(=O)NCC#N)Cc3ccc(OCCN)c(c3)-c3cc2ccc3OCCN)c(C)c1 [Compound 265]		0.043 µg/mL (≈ 0.0521 µM)		0.89 nM	0.13 µg/mL (≈ 0.157 µM)	2.5 µg/mL (≈ 3.03 µM)
Cc1cc(C(C)(C)C)ccc1C(=O)N[C@@H](CCN)C(=O)N(C)[C@@H]1C(=O)N[C@@H](C)C(=O)N[C@H](C(=O)NCC#N)Cc2ccc(OCCN)c(c2)-c2cc1ccc2OCCN [Compound 266]	0.5 µg/mL (≈ 0.616 µM)	0.083 µg/mL (≈ 0.102 µM)	3.5 µg/mL (≈ 4.31 µM)	2.1 nM		
CCCCCCCOc1ccc(C(=O)N[C@@H](CCN)C(=O)N(C)[C@@H]2C(=O)N[C@@H](C)C(=O)N[C@H](C(=O)NCC#N)Cc3ccc(OCCN)c(c3)-c3cc2ccc3OCCN)c(Cl)c1 [Compound 267]		0.012 µg/mL (≈ 0.0135 µM)		0.63 nM	0.027 µg/mL (≈ 0.0303 µM)	0.13 µg/mL (≈ 0.146 µM)
CCCCCCCOc1ccc(C(=O)N[C@@H](CCN)C(=O)N(C)[C@@H]2C(=O)N[C@@H](C)C(=O)N[C@H](C(=O)NCC#N)Cc3ccc(OCCN)c(c3)-c3cc2ccc3OCCN)c(C)c1 [Compound 268]	0.035 µg/mL (≈ 0.0402 µM)	< 0.0039 µg/mL	0.22 µg/mL (≈ 0.253 µM)	0.86 nM		
CCCCOc1ccc(C(=O)N[C@@H](CCN)C(=O)N(C)[C@@H]2C(=O)N[C@@H](C)C(=O)N[C@H](C(=O)NCC#N)Cc3ccc(OCCN)c(c3)-c3cc2ccc3OCCN)c(Cl)c1 [Compound 269]	0.25 µg/mL (≈ 0.295 µM)	0.023 µg/mL (≈ 0.0271 µM)	1 µg/mL (≈ 1.18 µM)	1.2 nM		
CCCCCOc1ccc(C(=O)N[C@@H](CCN)C(=O)N(C)[C@@H]2C(=O)N[C@@H](C)C(=O)N[C@H](C(=O)NCC#N)Cc3ccc(OCCN)c(c3)-c3cc2ccc3OCCN)c(Cl)c1 [Compound 270]	0.094 µg/mL (≈ 0.109 µM)	0.016 µg/mL (≈ 0.0186 µM)	0.63 µg/mL (≈ 0.73 µM)	0.89 nM		
CCCCCCOc1ccc(C(=O)N[C@@H](CCN)C(=O)N(C)[C@@H]2C(=O)N[C@@H](C)C(=O)N[C@H](C(=O)NCC#N)Cc3ccc(OCCN)c(c3)-c3cc2ccc3OCCN)c(Cl)c1 [Compound 271]	0.047 µg/mL (≈ 0.0536 µM)	0.016 µg/mL (≈ 0.0183 µM)	0.31 µg/mL (≈ 0.354 µM)	1.1 nM		
CCCCCCCCOc1ccc(C(=O)N[C@@H](CCN)C(=O)N(C)[C@@H]2C(=O)N[C@@H](C)C(=O)N[C@H](C(=O)NCC#N)Cc3ccc(OCCN)c(c3)-c3cc2ccc3OCCN)c(Cl)c1 [Compound 272]	0.047 µg/mL (≈ 0.052 µM)	0.0078 µg/mL (≈ 0.00862 µM)	0.13 µg/mL (≈ 0.144 µM)	0.7 nM		
CCCCCCCOc1ccc(C(=O)N[C@@H](CCN)C(=O)N(C)[C@@H]2C(=O)N[C@@H](C)C(=O)N[C@H](C(=O)NCC#N)Cc3ccc(OCCN)c(c3)-c3cc2ccc3OCCN)c(C(F)(F)F)c1 [Compound 273]	0.031 µg/mL (≈ 0.0335 µM)	0.016 µg/mL (≈ 0.0173 µM)	0.5 µg/mL (≈ 0.541 µM)	0.6 nM		
Cc1cc(OCCC(C)C)ccc1C(=O)N[C@@H](CCN)C(=O)N(C)[C@@H]1C(=O)N[C@@H](C)C(=O)N[C@H](C(=O)NCC#N)Cc2ccc(OCCN)c(c2)-c2cc1ccc2OCCN [Compound 274]	0.13 µg/mL (≈ 0.154 µM)	0.02 µg/mL (≈ 0.0238 µM)	1.3 µg/mL (≈ 1.54 µM)	0.79 nM		
Cc1cc(OCC2CCCCC2)ccc1C(=O)N[C@@H](CCN)C(=O)N(C)[C@@H]1C(=O)N[C@@H](C)C(=O)N[C@H](C(=O)NCC#N)Cc2ccc(OCCN)c(c2)-c2cc1ccc2OCCN [Compound 275]	0.063 µg/mL (≈ 0.0726 µM)	0.014 µg/mL (≈ 0.0161 µM)	0.38 µg/mL (≈ 0.438 µM)	0.55 nM		
Cc1cc(OCC(C)C)ccc1C(=O)N[C@@H](CCN)C(=O)N(C)[C@@H]1C(=O)N[C@@H](C)C(=O)N[C@H](C(=O)NCC#N)Cc2ccc(OCCN)c(c2)-c2cc1ccc2OCCN [Compound 276]	0.58 µg/mL (≈ 0.7 µM)	0.031 µg/mL (≈ 0.0374 µM)	2 µg/mL (≈ 2.42 µM)	1.8 nM		
Cc1cc(OCCC(C)(C)C)ccc1C(=O)N[C@@H](CCN)C(=O)N(C)[C@@H]1C(=O)N[C@@H](C)C(=O)N[C@H](C(=O)NCC#N)Cc2ccc(OCCN)c(c2)-c2cc1ccc2OCCN [Compound 277]	0.063 µg/mL (≈ 0.0736 µM)	0.012 µg/mL (≈ 0.014 µM)	1 µg/mL (≈ 1.17 µM)	1.1 nM		
Cc1cc(OCC(C)(C)C)ccc1C(=O)N[C@@H](CCN)C(=O)N(C)[C@@H]1C(=O)N[C@@H](C)C(=O)N[C@H](C(=O)NCC#N)Cc2ccc(OCCN)c(c2)-c2cc1ccc2OCCN [Compound 280]	0.13 µg/mL (≈ 0.154 µM)	0.027 µg/mL (≈ 0.0321 µM)	0.63 µg/mL (≈ 0.748 µM)	2 nM		
CCCCCCCOc1ccc(C(=O)N[C@@H](CCCN)C(=O)N(C)[C@@H]2C(=O)N[C@@H](C)C(=O)N[C@H](C(=O)NCC#N)Cc3ccc(OCCN)c(c3)-c3cc2ccc3OCCN)c(C)c1 [Compound 281]	0.023 µg/mL (≈ 0.026 µM)	0.0078 µg/mL (≈ 0.00882 µM)	0.25 µg/mL (≈ 0.283 µM)	0.75 nM		
CCCCCCCOc1ccc(C(=O)N[C@@H](CCCN)C(=O)N(C)[C@@H]2C(=O)N[C@@H](C)C(=O)N[C@H](C(=O)NCC#N)Cc3ccc(OCCN)c(c3)-c3cc2ccc3OCCN)c(Cl)c1 [Compound 282]	0.016 µg/mL (≈ 0.0177 µM)	0.0078 µg/mL (≈ 0.00862 µM)	0.25 µg/mL (≈ 0.276 µM)	0.71 nM		
CCCCC#CCOc1ccc(C(=O)N[C@@H](CCN)C(=O)N(C)[C@@H]2C(=O)N[C@@H](C)C(=O)N[C@H](C(=O)NCC#N)Cc3ccc(OCCN)c(c3)-c3cc2ccc3OCCN)c(Cl)c1 [Compound 283]	0.063 µg/mL (≈ 0.0711 µM)	0.012 µg/mL (≈ 0.0135 µM)	1 µg/mL (≈ 1.13 µM)	0.87 nM		
C#CCC(C)(C)COc1ccc(C(=O)N[C@@H](CCN)C(=O)N(C)[C@@H]2C(=O)N[C@@H](C)C(=O)N[C@H](C(=O)NCC#N)Cc3ccc(OCCN)c(c3)-c3cc2ccc3OCCN)c(C)c1 [Compound 284]		0.012 µg/mL (≈ 0.0139 µM)		0.82 nM	0.13 µg/mL (≈ 0.15 µM)	1 µg/mL (≈ 1.15 µM)
CCCC(C)(C)COc1ccc(C(=O)N[C@@H](CCN)C(=O)N(C)[C@@H]2C(=O)N[C@@H](C)C(=O)N[C@H](C(=O)NCC#N)Cc3ccc(OCCN)c(c3)-c3cc2ccc3OCCN)c(C)c1 [Compound 288]	0.063 µg/mL (≈ 0.0724 µM)	0.0078 µg/mL (≈ 0.00896 µM)	0.25 µg/mL (≈ 0.287 µM)	1.1 nM		
